Reference: patent publication EP0329905A1, “Use of quinolizine and quinolizinone derivatives in the manufacture of medicaments for increasing gastric motility” (MERRELL DOW PHARMACEUTICALS INC., priority 1988, dated 1989)
Counter-ions that a name gives are not always drawn.

System: Von Bezold-Jarisch Reflex induced by 5-HT
Assay: Von Bezold-Jarisch Reflex induced by 5-HT injected intravenously into the rat
Type: in vivo
Excerpt: The activity of these compounds against 5-HT can be assessed in vivo by measurement of the effect of the compound on the Von Bezold-Jarisch Reflex induced by 5-HT injected intravenously into the rat (see Paintal A.S., Physiol. Rev. 53, 159-227, 1973; J.R. Fozard, Naunyn-Schmiedeberg's Arch. Pharmacol., 326, 1984, 36-44). The transient cardiac slowing arises from an increased afferent vagus activity arising from stimulation by 5-HT of sensory afferent fibers in and around the heart.

[1] = doses of 0.01-0.1 mg/kg given intravenously
[2] = doses of 0.25-1 mg/kg given orally

Compound | suppression of the Von Bezold-Jarisch Reflex induced by 5-HT [1] | suppression of the Von Bezold-Jarisch Reflex induced by 5-HT [2]
O=C(OC1CC2CC3CC(C1)N2CC3=O)c1c[nH]c2ccccc12 (stereo not drawn) [endo-hexahydro-8-(3-indolylcarbonyloxy)-2,6-methano-2H-quinolizin-3(4H)one hydrochloride] | suppressed the response dose-dependently | suppressed the response dose-dependently
Cc1cc(C)cc(C(=O)OC2CC3CC4CC(C2)N3CC4=O)c1 (stereo not drawn) [endo-8-(3,5-dimethylbenzoyloxy)hexahydro-2,6-methano-2H-quinolizin-3(4H)-one hydrochloride] | suppressed the response dose-dependently | suppressed the response dose-dependently
